The values below come from ChEMBL document CHEMBL1687737, “Potent activity of a nucleoside reverse transcriptase inhibitor, 4'-ethynyl-2-fluoro-2'-deoxyadenosine, against human immunodeficiency virus type 1 infection in a model using human peripheral blood mononuclear cell-transplanted NOD/SCID Janus kinase 3 knockout mice” (Antimicrob Agents Chemother, 2009).

Data set [1] can be described thus: Tmax in BALB/c mouse at 20 mg/kg, ip. Also noted: dose 20 mg/kg, route intraperitoneal. The conditions noted are these: in vivo. The class given is ADME, organism-based.
A short description of data set [2]: Drug level in BALB/c mouse blood at 20 mg/kg, ip. The class given is ADME, organism-based. Also noted: dose 20 mg/kg, route intraperitoneal. As to conditions: read-out: Drug uptake.
In data set [3] the test system is Mus musculus. In words: Toxicity in BALB/c mouse assessed as change in body weight at 5 mg/kg, ip bid for 14 days. The class given is organism-based. Also noted: dose 5 mg/kg, route intraperitoneal. The conditions noted are these: in vivo, 336 h.
For data set [4], the system named is Mus musculus. In words: Toxicity in BALB/c mouse assessed as change in body weight at 50 mg/kg, ip bid for 14 days. The class given is organism-based. Also noted: dose 50 mg/kg, route intraperitoneal. As to conditions: in vivo, 336 h.
In data set [5] the test system is Mus musculus. Kind of data set: Toxicity in BALB/c mouse assessed as acute whole-body effect at 5 mg/kg, ip bid for 14 days. The class given is organism-based. Also noted: dose 5 mg/kg, route intraperitoneal. As to conditions: in vivo, 336 h.
In data set [6] the test system is Mus musculus. Kind of data set: Toxicity in BALB/c mouse assessed as acute whole-body effect at 50 mg/kg, ip bid for 14 days. The class given is organism-based. Further details: dose 50 mg/kg, route intraperitoneal. The conditions noted are these: in vivo, 336 h.
Data set [7] concerns Mus musculus. In words: Toxicity in BALB/c mouse assessed as subacute whole-body effect at 5 mg/kg, ip bid for 14 days. Also noted: dose 5 mg/kg, route intraperitoneal. The class given is organism-based. As to conditions: in vivo, 336 h.
Data set [8] relates to Mus musculus. Kind of data set: Toxicity in BALB/c mouse assessed as subacute whole-body effect at 50 mg/kg, ip bid for 14 days. Further details: dose 50 mg/kg, route intraperitoneal. As to conditions: in vivo, 336 h. The class given is organism-based.
Data set [9] deals with Mus musculus. Kind of data set: Toxicity in BALB/c mouse assessed as ruffled fur at 50 mg/kg, ip bid for 14 days. The class given is organism-based. Also noted: dose 50 mg/kg, route intraperitoneal. As to conditions: in vivo, 336 h.
In data set [10] the test system is Human immunodeficiency virus 1. In words: Antiviral activity against HIV1 JR-FL infected in human PBMC transplanted NOD/SCID/Janus kinase 3 knockout mouse assessed as increase of CD4/CD8 ratio in PBMC at 0.5 mg/kg, ip bid for 15 days by flow cytometry. As to conditions: route intraperitoneal. The class given is functional. In general terms: In flow cytometry, cells or beads pass a laser one at a time.

Data set [11] concerns Mus musculus. Kind of data set: Toxicity in HIV1 JR-FL infected human PBMC transplanted NOD/SCID/Janus kinase 3 knockout mouse assessed as adverse effect at 0.5 mg/kg, ip bid for 15 days. The class given is organism-based. Also noted: dose 0.5 mg/kg, route intraperitoneal. The conditions noted are these: in vivo, 360 h.
Data set [12] concerns Human immunodeficiency virus 1. Kind of data set: Antiviral activity against HIV1 JR-FL infected in human PBMC transplanted NOD/SCID/Janus kinase 3 knockout mouse assessed as decrease of p24 expressing human CD4+ cells in peritoneal cavity cells at 0.5 mg/kg, ip bid for 15 days by flow cytometry. The class given is functional, organism-based. Also noted: dose 0.5 mg/kg.
Data set [13] concerns Human immunodeficiency virus 1. In words: Antiviral activity against HIV1 JR-FL infected in human PBMC transplanted NOD/SCID/Janus kinase 3 knockout mouse assessed as decrease of p24 expressing human CD4+ cells in PBMC at 0.5 mg/kg, ip bid for 15 days by flow cytometry. The class given is functional, organism-based. Further details: dose 0.5 mg/kg.
Data set [14] concerns Human immunodeficiency virus 1. Kind of data set: Antiviral activity against HIV1 JR-FL infected in human PBMC transplanted NOD/SCID/Janus kinase 3 knockout mouse assessed as decrease of p24 expressing human CD3+ cells in spleen cells at 0.5 mg/kg, ip bid for 15 days by flow cytometry. The class given is functional. Further details: scale not given: the % may be the effect or the level left. As to conditions: route intraperitoneal.

For data set [15], the system named is Human immunodeficiency virus 1. In words: Antiviral activity against HIV1 JR-FL infected in human PBMC transplanted NOD/SCID/Janus kinase 3 knockout mouse assessed as increase of CD4/CD8 ratio in spleen at 0.5 mg/kg, ip bid for 15 days by flow cytometry. The class given is functional, organism-based. Also noted: dose 0.5 mg/kg.
Data set [16] relates to Human immunodeficiency virus 1. In words: Antiviral activity against HIV1 JR-FL infected in human PBMC transplanted NOD/SCID/Janus kinase 3 knockout mouse assessed as increase of CD4/CD8 ratio in peritoneal cavity at 0.5 mg/kg, ip bid for 15 days by flow cytometry. The class given is functional, organism-based. Also noted: dose 0.5 mg/kg.
Data set [17] relates to Human immunodeficiency virus 1. Kind of data set: Antiviral activity against HIV1 JR-FL infected in human PBMC transplanted NOD/SCID/Janus kinase 3 knockout mouse assessed as decrease of viral p24 antigen level in plasma at 0.5 mg/kg, ip bid for 15 days by ELISA. The conditions noted are these: route intraperitoneal. The class given is functional.
The subject of data set [18] is Human immunodeficiency virus 1. Kind of data set: Antiviral activity against HIV1 JR-FL infected in human PBMC transplanted NOD/SCID/Janus kinase 3 knockout mouse assessed as decrease of viremia in plasma at 0.5 mg/kg, ip bid for 15 days by ELISA. The class given is functional, organism-based. Also noted: dose 0.5 mg/kg. (In general: ELISA stands for enzyme-linked immunosorbent assay.)

Broadly, the Tmax is the time from dosing to the highest level.

Calls of active or inactive are those of the source. No cut-off for these calls is given here.

On to `C#C[C@]1(CO)O[C@@H](n2cnc3c(N)nc(F)nc32)C[C@@H]1O` [ISLATRAVIR], for which, in data set [1], the Tmax is 10 min. Moreover, the AUC in [2] worked out at 4990 ng·h/mL. For the same compound, the Activity result with Mus musculus [3], with Mus musculus [4], in the data set on Mus musculus [5], in the data set on Mus musculus [6], with Mus musculus [7] and in the data set with Mus musculus [8] was “Non-toxic” throughout. Moreover, the Activity entry with Mus musculus [9] is “Non-toxic”; in the data set on Mus musculus [11] it was “Non-toxic”; in data set [14] it was 0.11%; in data set [17], 2.1 ×10² pg/ml. The Ratio in [10] is reported as 0.65. Further, the result in data set [12], in [13], in [15], in data set [16] and in [18] was Active.
